Reference: patent publication US12539292B2, “BRM targeting compounds and associated methods of use” (Arvinas Operations, Inc., priority 2018, dated 2026)
Like-named read-outs stand apart in the source and are kept apart here. One block for each compound: values may come before it.

Molecular target: T1, BRM (Homo sapiens, UniProt P51531)
T1 construct: In-Cell Western Screen of BRM Degradation in SW1573 Cells; endogenous in cells; host or cells: SW1573
Test: In-cell Western screen of BRM degradation in SW1573 cells (Dmax and DC50)
Type: cell-based
How it was run: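 SW1573 cells were treated overnight (18-20 hours) with compound at 0.1% final DMSO. They were then PFA-fixed, permeabilised with Triton X-100 and immunostained with 800 nm/680 nm secondary antibodies. BRM signal was quantified by LI-COR in-cell Western imaging to derive Dmax and DC50.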

[1] = SW1573, % degraded, when tested at the top concentration of between 0.3 and 10 μM, read-out: BRM Dmax (%)
[2] = target protein degradation, read-out: BRM DC50
[3] = BRM degradation, SW1573 cells, read-out: DC50
[4] = BRM degradation, SW1573 cells, when tested at the top concentration of between 0.3 and 10 μM, read-out: Dmax (%) (% degraded)

T1 sequence (P51531 whole entry): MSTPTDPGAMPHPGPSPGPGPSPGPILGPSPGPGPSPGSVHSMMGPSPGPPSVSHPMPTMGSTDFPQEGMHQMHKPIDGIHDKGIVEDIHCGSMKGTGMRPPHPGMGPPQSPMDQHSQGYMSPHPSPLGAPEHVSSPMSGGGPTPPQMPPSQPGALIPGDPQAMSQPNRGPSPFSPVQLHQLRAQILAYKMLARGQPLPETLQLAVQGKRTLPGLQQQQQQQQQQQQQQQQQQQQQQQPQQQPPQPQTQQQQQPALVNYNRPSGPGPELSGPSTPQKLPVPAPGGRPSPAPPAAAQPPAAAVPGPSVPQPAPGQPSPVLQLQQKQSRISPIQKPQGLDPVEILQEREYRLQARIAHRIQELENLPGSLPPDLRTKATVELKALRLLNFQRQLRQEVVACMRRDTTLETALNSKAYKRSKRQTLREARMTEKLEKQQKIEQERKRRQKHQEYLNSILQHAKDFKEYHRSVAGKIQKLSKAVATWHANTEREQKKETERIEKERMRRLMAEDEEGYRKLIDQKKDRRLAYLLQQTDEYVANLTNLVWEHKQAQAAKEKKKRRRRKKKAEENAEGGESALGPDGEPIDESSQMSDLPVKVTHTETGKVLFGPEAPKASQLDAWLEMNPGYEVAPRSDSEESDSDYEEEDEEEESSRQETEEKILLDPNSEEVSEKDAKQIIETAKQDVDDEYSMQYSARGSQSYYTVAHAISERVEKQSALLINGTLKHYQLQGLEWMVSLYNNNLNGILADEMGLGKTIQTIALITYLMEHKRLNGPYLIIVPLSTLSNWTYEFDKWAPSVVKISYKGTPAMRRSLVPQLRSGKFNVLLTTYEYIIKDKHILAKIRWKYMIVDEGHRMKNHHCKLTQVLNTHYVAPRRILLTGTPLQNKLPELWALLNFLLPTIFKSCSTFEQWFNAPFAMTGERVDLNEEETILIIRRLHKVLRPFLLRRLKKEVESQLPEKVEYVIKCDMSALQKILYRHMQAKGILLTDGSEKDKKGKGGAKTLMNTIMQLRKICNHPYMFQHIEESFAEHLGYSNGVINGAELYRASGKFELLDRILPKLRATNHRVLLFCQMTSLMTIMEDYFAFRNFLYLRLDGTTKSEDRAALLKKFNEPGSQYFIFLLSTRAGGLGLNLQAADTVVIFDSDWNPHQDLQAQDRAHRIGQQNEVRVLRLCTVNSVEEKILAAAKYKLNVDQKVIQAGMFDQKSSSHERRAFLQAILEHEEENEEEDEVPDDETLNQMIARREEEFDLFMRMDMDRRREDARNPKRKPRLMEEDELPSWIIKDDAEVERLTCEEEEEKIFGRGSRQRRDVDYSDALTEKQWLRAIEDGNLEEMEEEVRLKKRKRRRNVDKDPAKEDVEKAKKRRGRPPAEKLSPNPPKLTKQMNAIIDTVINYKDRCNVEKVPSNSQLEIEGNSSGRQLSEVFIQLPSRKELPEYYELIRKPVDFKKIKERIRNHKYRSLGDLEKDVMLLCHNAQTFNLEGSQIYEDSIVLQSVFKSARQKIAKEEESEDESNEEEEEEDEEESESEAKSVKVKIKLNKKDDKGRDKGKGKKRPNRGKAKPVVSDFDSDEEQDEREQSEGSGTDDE

Compound: Cc1ncsc1-c1ccc([C@H](C)NC(=O)[C@@H]2C[C@@H](O)CN2C(=O)[C@@H](c2cc(OCCCOc3cc(N4C5CCC4CN(c4cc(-c6ccccc6O)nnc4N)C5)ccn3)no2)C(C)C)cc1 [compound 614, (2S,4R)-1-((2R)-2-(3-(3-((4-(3-(3-amino-6-(2-hydroxyphenyl)pyridazin-4-yl)-3,8-diazabicyclo[3.2.1]octan-8-yl)pyridin-2-yl)oxy)propoxy)isoxazol-5-y1)-3-methylbutanoyl)-4-hydroxy-N-((S)-1-(4-(4-methylthiazol-5-yl)phenyl)ethyl)pyrrolidine-2-carboxamide]
- Dmax (BRM degradation, SW1573 cells, Table 2D, read-out: **Dmax (%) (% degraded)): > 75%
- DC50 (BRM degradation, SW1573 cells, Table 2D, read-out: *DC50): < 2.5 nM

Compound: Cc1n[nH]c(C)c1-c1ccc([C@H](C)NC(=O)[C@@H]2C[C@@H](O)CN2C(=O)[C@@H](c2cc(OCCN3CCC(O[C@H]4C[C@H](Oc5cc(N6C7CCC6CN(c6cc(-c8ccccc8O)nnc6N)C7)ccn5)C4)CC3)no2)C(C)C)cc1 [compound 378, (2S,4R)-1-((2R)-2-(3-(2-(4-((1r,3R)-3-((4-(3-(3-amino-6-(2-hydroxyphenyl)pyridazin-4-yl)-3,8-diazabicyclo[3.2.1]octan-8-yl)pyridin-2-yl)oxy)cyclobutoxy)piperidin-1-yl)ethoxy)isoxazol-5-yl)-3-methylbutanoyl)-N-((S)-1-(4-(3,5-dimethyl-1H-pyrazol-4-yl)phenyl)ethyl)-4-hydroxypyrrolidine-2-carboxamide]
- Dmax [1]: > 75%
- DC50 [2]: < 2.5 nM

Compound: Cc1ncsc1-c1ccc(CNC(=O)[C@@H]2C[C@@H](O)CN2C(=O)[C@@H](NC(=O)Cc2ccc(N3CCN(CCOCCCc4cc(N5C6CCC5CN(c5cc(-c7ccccc7O)nnc5N)C6)ccn4)CC3)nc2)C(C)(C)C)cc1 [compound 31, (2S,4R)-1-((2S)-2-(2-(6-(4-(2-(3-(4-(3-(3-amino-6-(2-hydroxyphenyl)pyridazin-4-yl)-3,8-diazabicyclo[3.2.1]octan-8-yl)pyridin-2-yl)propoxy)ethyl)piperazin-1-yl)pyridin-3-yl)acetamido)-3,3-dimethylbutanoyl)-4-hydroxy-N-(4-(4-methylthiazol-5-yl)benzyl)pyrrolidine-2-carboxamide]
- DC50 [3]: 10 to 30 nM
- Dmax [4]: > 75%

Compound: Cc1ncsc1-c1ccc([C@H](C)NC(=O)[C@@H]2C[C@@H](O)CN2C(=O)[C@H](c2cc(OCCOCCOCCCCN3CC4(C3)CN(c3cc(-c5ccccc5O)nnc3N)C4)no2)C(C)C)cc1 [compound 65, (2S,4R)-1-((S)-2-(3-(2-(2-(4-(6-(3-amino-6-(2-hydroxyphenyl)pyridazin-4-yl)-2,6-diazaspiro[3.3]heptan-2-yl)butoxy)ethoxy)ethoxy)isoxazol-5-yl)-3-methylbutanoyl)-4-hydroxy-N-((S)-1-(4-(4-methylthiazol-5-yl)phenyl)ethyl)pyrrolidine-2-carboxamide]
- DC50 [3]: > 30 nM

- DC50 [2]: > 30 nM
Compound: Cc1nccn1-c1ccc([C@H](C)NC(=O)[C@@H]2C[C@@H](O)CN2C(=O)[C@H](c2cc(N3CCC(OC4CCN(C[C@H]5C[C@H](Oc6cc(N7C8CCC7CN(c7cc(-c9ccccc9O)nnc7N)C8)ccn6)C5)CC4)CC3)no2)C(C)C)cc1 [compound 477, (2S,4R)-1-((2S)-2-(3-(4-((1-(((1r,3r)-3-((4-(3-(3-amino-6-(2-hydroxyphenyl)pyridazin-4-yl)-3,8-diazabicyclo[3.2.1]octan-8-yl)pyridin-2-yl)oxy)cyclobutyl)methyl)piperidin-4-yl)oxy)piperidin-1-yl)isoxazol-5-yl)-3-methylbutanoyl)-4-hydroxy-N-((S)-1-(4-(2-methyl-1H-imidazol-1-yl)phenyl)ethyl)pyrrolidine-2-carboxamide]

Compound: Cc1ncsc1-c1ccc([C@H](C)NC(=O)[C@@H]2C[C@@H](O)CN2C(=O)[C@@H](c2cc(OCC(=O)N3CCC(O[C@H]4C[C@H](Oc5cc(N6C7CCC6CN(c6cc(-c8ccccc8O)nnc6N)C7)ccn5)C4)CC3)no2)C(C)C)cn1 [compound 286, (2S,4R)-1-((2R)-2-(3-(2-(4-((1r,3R)-3-((4-(3-(3-amino-6-(2-hydroxyphenyl)pyridazin-4-yl)-3,8-diazabicyclo[3.2.1]octan-8-yl)pyridin-2-yl)oxy)cyclobutoxy)piperidin-1-yl)-2-oxoethoxy)isoxazol-5-yl)-3-methylbutanoyl)-4-hydroxy-N-((S)-1-(6-(4-methylthiazol-5-yl)pyridin-3-yl)ethyl)pyrrolidine-2-carboxamide]
- DC50 [3]: 2.5 to 10 nM
- Dmax (BRM degradation, SW1573 cells, tested at the top concentration of between 0.3 and 10 μM, read-out: Dmax (%) (% degraded)): > 75%

Compound: Cc1ncsc1-c1ccc([C@H](C)NC(=O)[C@@H]2C[C@@H](O)CN2C(=O)[C@@H](c2cc(N3CCN(CC4CCN(C[C@H]5C[C@H](Oc6cc(N7C8CCC7CN(c7cc(-c9ccccc9O)nnc7N)C8)ccn6)C5)CC4)CC3)no2)C(C)C)cc1 [compound 458, (2S,4R)-1-((2R)-2-(3-(4-((1-(((1r,3r)-3-((4-(3-(3-amino-6-(2-hydroxyphenyl)pyridazin-4-yl)-3,8-diazabicyclo[3.2.1]octan-8-yl)pyridin-2-yl)oxy)cyclobutyl)methyl)piperidin-4-yl)methyl)piperazin-1-yl)isoxazol-5-yl)-3-methylbutanoyl)-4-hydroxy-N-((S)-1-(4-(4-methylthiazol-5-yl)phenyl)ethyl)pyrrolidine-2-carboxamide]
- Dmax [1]: > 75%
- DC50 [2]: < 2.5 nM

Compound: Cc1ncsc1-c1ccc([C@H](COCC(C)C)NC(=O)[C@@H]2C[C@@H](O)CN2C(=O)[C@H](c2cc(OCCN3CCN(CCOc4cc(N5C6CCC5CN(c5cc(-c7ccccc7O)nnc5N)C6)ccn4)CC3)no2)C(C)C)cc1 [compound 291, (2S,4R)-1-((2S)-2-(3-(2-(4-(2-((4-(3-(3-amino-6-(2-hydroxyphenyl)pyridazin-4-yl)-3,8-diazabicyclo[3.2.1]octan-8-yl)pyridin-2-yl)oxy)ethyl)piperazin-1-yl)ethoxy)isoxazol-5-yl)-3-methylbutanoyl)-4-hydroxy-N-((R)-2-isobutoxy-1-(4-(4-methylthiazol-5-yl)phenyl)ethyl)pyrrolidine-2-carboxamide]
- DC50 [3]: > 30 nM

- DC50 [3]: 2.5 to 10 nM
- Dmax [4]: > 75%
Compound: Cc1ncsc1-c1ccc(CNC(=O)[C@@H]2C[C@@H](O)CN2C(=O)[C@@H](c2cc(CCCOCCOCCOCCn3cc(-c4cc(-c5ccccc5O)nnc4N)cn3)no2)C(C)C)cc1 [compound 24, (2S,4R)-1-[(2R)-2-[3-(3-[2-[2-(2-[4-[3-amino-6-(2-hydroxyphenyl)pyridazin-4-yl]-1H-pyrazol-1-yl]ethoxy)ethoxy]ethoxy]propyl)-1,2-oxazol-5-yl]-3-methylbutanoyl]-4-hydroxy-N-[[4-(4-methyl-1,3-thiazol-5-yl)phenyl]methyl]pyrrolidine-2-carboxamide]

Compound: Cc1ncsc1-c1ccc([C@H](C)NC(=O)[C@@H]2C[C@@H](O)CN2C(=O)[C@@H](c2cc(OCCN3CCN(CCOc4cc(N5C6CCC5CN(c5cc(-c7ccccc7O)nnc5N)C6)ccn4)CC3)no2)C(C)C)cn1 [compound 116, (2S,4R)-1-((2R)-2-(3-(2-(4-(2-((4-(3-(3-amino-6-(2-hydroxyphenyl)pyridazin-4-yl)-3,8-diazabicyclo[3.2.1]octan-8-yl)pyridin-2-yl)oxy)ethyl)piperazin-1-yl)ethoxy)isoxazol-5-yl)-3-methylbutanoyl)-4-hydroxy-N-((S)-1-(6-(4-methylthiazol-5-yl)pyridin-3-yl)ethyl)pyrrolidine-2-carboxamide]
- DC50 [3]: < 2.5 nM
- Dmax [4]: > 75%

- DC50 [3]: > 30 nM
Compound: CC(C)[C@H](C(=O)N1C[C@H](O)C[C@H]1C(=O)N[C@@H](C)c1ccc(C#N)cc1)c1cc(N2CCC(CN3CCC(O[C@H]4C[C@H](C#C[C@@H](C)n5cc(-c6cc(-c7ccccc7O)nnc6N)cn5)C4)CC3)CC2)no1 (single isomer, unassigned) [compound 697]
